# Measured values from US11723890B2, “Methods of treatment using an mTORC1 modulator” (Navitor Pharmaceuticals, Inc., priority 2019, dated 2023).
# Assays:
# cynomolgus monkey = assay: Single oral dose toxicology study in cynomolgus monkey; type: in vivo
# Experimental: Nonclinical toxicology studies have been performed with compound A in the rat and cynomolgus monkey. Adverse effects were not observed after single oral doses of up to 500 mg/kg in rat and up to 2000 mg/kg in cynomolgus monkey.
# [1] = 14-day Q3D oral toxicology study in rats; type: in vivo, rat; conditions: rat, in vivo
# Experimental: In rats administered 160, 500, or 1000 mg/kg PO every 3 days (Q3D) for 14 days (5 doses total), the no-observed-adverse-effect level (NOAEL) was 160 mg/kg.
# Factors Influencing Starting and Stopping Dose for compound A: The proposed starting dose of compound A (150 mg) was based on considering the NOAEL dose of compound A in the most sensitive species (160 mg/kg dosed Q3D for 14 days in rat), determining the human equivalent dose (HED) based on the body surface area difference between the two species (˜26 mg/kg, or ˜1560 mg for a 60 kg human), followed by applying a safety factor of 10 to yield the maximum recommended starting dose (MRSD). Based on the above considerations, the starting dose of compound A in the present study was 150 mg. Based on an integrated assessment of nonclinical findings with compound A, the planned maximum dose for compound A in the first-time-in-humans (FTIH) study was 2400 mg. Extrapolated on the basis of body surface area, the 2400 mg dose is equivalent to 247 mg/kg in rats and 123 mg/kg in monkeys. […] At 160 mg/kg in monkeys, the only effect was a slight decrease in heart rate (approximately 18%, or approximately 30 beats per minute, compared with vehicle).
# In addition, the present clinical study included frequent clinical laboratory tests.
smiles,measurement,setting,value
"CC(C)(C[C@H](N)C(=O)O)C(F)F [Compound A, (S)-2-amino-5,5-difluoro-4,4-dimethylpentanoic acid]",single oral dose up to which adverse effects were not observed,cynomolgus monkey,up to 2000 mg/kg
same,human equivalent dose of rat NOAEL at 14 days,"[1]; oral, 160 mg/kg, based on body surface area difference, read-out: human equivalent dose (HED) of rat NOAEL",~26 mg/kg
same,NOAEL at 14 days,"[1]; rats, 160, 500 or 1000 mg/kg PO Q3D for 14 days (5 doses), read-out: no-observed-adverse-effect level (NOAEL)",160 mg/kg
